We go through one compound from patent US9205108B2, “Treatment of traumatic brain injury by using gallium compounds to reduce oxidative stress levels” (priority 2012, dated 2015).

One assay has as its system protein carbonyls. Nature of the assay: Protein carbonyl analysis (slot blot, 2,4-DNP) of whole brain homogenate after controlled cortical contusion. Format: in vivo, C57BL/6NHsd mice. As to conditions: for Protein carbonyl: difference compared to control (sham): whole brain homogenate. The method, then: (§1) Twenty C57BL/6NHsd mice were used for a study. Mice were set into five groups: sham, 15 minutes saline, 15 minutes gallium, 30 minutes gallium, and 30 minutes saline. A moderate controlled cortical contusion was given to all animals except the four animals in the sham group. The 15 minutes gallium group was injected with 10 mg/kg gallium nitrate at 15 minutes post injury. The 15 minutes saline group was injected with saline at 15 minutes post injury. The 30 minutes gallium group was injected with 10 mg/kg gallium nitrate at 30 minutes post injury. The 30 minutes saline group was injected with saline at 30 minutes post injury. A sample size of 4 was used for each group except gallium nitrate treated samples at 15 minutes post injury (n=3), gallium nitrate treated samples at 30 minutes post injury (n=5), and saline treated animals at 30 minutes (n=3).
(§2) A gallium compound was delivered by injection, in particular, intraperitoneal injection. […] Due to this unequal pairing, statistics (Student's t-test) were performed using unpaired analysis. P values <0.05 were deemed significant. Western blots (slot blots) were run for all samples and immunoblotting was performed with the following antibodies 2,4-DNP (protein carbonyls) and anti-3-nitrotyrosine (protein nitration). All blots were run twice for reproducibility. All samples were compared to sham (craniotomy only, but no injury), which has been used as a baseline (control).
(§3) The two parameters for oxidative stress were run on whole brain homogenate using immunochemical detection.

For assay [1] the following is noted: 100-300 mg/m²/day over 5-7 days; cited from earlier work.
The next assay has as its system 3-nitrotyrosine (3-NT). In words: Protein nitration analysis (slot blot, anti-3-nitrotyrosine) of whole brain homogenate after controlled cortical contusion. Format: in vivo, C57BL/6NHsd mice. As to conditions: for Protein nitration (3-NT): difference compared to control (sham): whole brain homogenate. The method, then:
as §1, §2, §3
Protein nitration is determined by indexing levels of 3-nitrotyrosine (3-NT). […] The difference between saline groups and the gallium groups at 30 minutes was statistically significant.

The mark [2] stands for this setting: 10 mg/kg intraperitoneal injection at 15 minutes post injury.
Setting [3] is: 10 mg/kg intraperitoneal injection at 30 minutes post injury.

In the case of `O=[N+]([O-])[O-].O=[N+]([O-])[O-].O=[N+]([O-])[O-].[Ga+3]` [Gallium nitrate, gallium nitrate], the “Protein carbonyl: difference compared to control (sham)” value in the assay with protein carbonyls (setting [2]) was determined as 17.5% reduction; with protein carbonyls (setting [3]) it was 6.6% reduction. Also, in the assay on protein carbonyls (both time points (15 and 30 minutes post injury)), the “Oxidative stress (protein carbonyls), result in words” value is recorded as “reduction in oxidative stress”. Besides, in assay [1], the “Reduction of calcium excretion” value is given as 70+18%. In addition, the “Protein nitration (3-NT): difference compared to control (sham)” value in the assay on 3-nitrotyrosine (3-NT) (setting [2]) was found to be 61.3% increase; in the assay on 3-nitrotyrosine (3-NT) (setting [3]), 18.1% increase. The “Levels of 3-NT, result in words” value in the assay on 3-nitrotyrosine (3-NT) (treatment at 15 minutes post injury) is given as “increase in the levels of 3-NT”; in the assay with 3-nitrotyrosine (3-NT) (treatment at 30 minutes post injury, difference to saline group statistically significant), “significant reduction in the levels of 3-NT”.
